What was measured:
Assay in all cases: NCI one-dose SRB anti-proliferative screen
Format in all cases: cell-based
SF-268 = conditions: Homo sapiens; SF-268, CNS Cancer; NCI one dose; read-out: Cell growth inhibition %
In short: (§1)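 Single 10 µM dose tested by NCI in its 60-cell-line panel covering nine tumour subpanels. Anti-proliferative activity was read by Sulforhodamine B colorimetric staining.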

IGROV1 = conditions: Homo sapiens, IGROV-1; IGROV1, Ovarian Cancer; NCI one dose; read-out: Cell growth inhibition %
In short: as §1

786-0 = conditions: Homo sapiens; 786-0, Renal cancer; NCI one dose; read-out: Cell growth inhibition %
In short: as §1

NCI-H460 = conditions: Homo sapiens; NCI-H460, Non-Small Cell Lung Cancer; NCI one dose; read-out: Cell growth inhibition %
In short: as §1

MDA-MB-435 = conditions: Homo sapiens; MDA-MB-435, Melanoma; NCI one dose; read-out: Cell growth inhibition %
In short: as §1

MDA-MB-468 = conditions: Homo sapiens; MDA-MB-468, Breast cancer; NCI one dose; read-out: Cell growth inhibition %
In short: as §1

MCF7 = conditions: Homo sapiens; MCF7, Breast cancer; NCI one dose; read-out: Cell growth inhibition %
In short: as §1

A498 = conditions: Homo sapiens; A498, Renal cancer; NCI one dose; read-out: Cell growth inhibition %
In short: as §1

HOP-92 = conditions: Homo sapiens; HOP-92, Non-Small Cell Lung Cancer; NCI one dose; read-out: Cell growth inhibition %
In short: as §1

TK-10 = conditions: Homo sapiens; TK-10, Renal cancer; NCI one dose; read-out: Cell growth inhibition %
In short: as §1

SK-MEL-2 = conditions: Homo sapiens; SK-MEL-2, Melanoma; NCI one dose; read-out: Cell growth inhibition %
In short: as §1

PC-3 = conditions: Homo sapiens; PC-3, Prostate Cancer; NCI one dose; read-out: Cell growth inhibition %
In short: as §1

SK-MEL-28 = conditions: Homo sapiens; SK-MEL-28, Melanoma; NCI one dose; read-out: Cell growth inhibition %
In short: as §1

SR = conditions: Homo sapiens; SR, Leukemia; NCI one dose; read-out: Cell growth inhibition %
In short: as §1

NCI/ADR-RES = conditions: Homo sapiens; NCI/ADR-RES, Ovarian Cancer; NCI one dose; read-out: Cell growth inhibition %
In short: as §1

UO-31 = conditions: Homo sapiens; UO-31, Renal cancer; NCI one dose; read-out: Cell growth inhibition %
In short: as §1

DU-145 = conditions: Homo sapiens; DU-145, Prostate Cancer; NCI one dose; read-out: Cell growth inhibition %
In short: as §1

SW-620 = conditions: Homo sapiens; SW-620, Colon cancer; NCI one dose; read-out: Cell growth inhibition %
In short: as §1

RPMI-8226 = conditions: Homo sapiens; RPMI-8226, Leukemia; NCI one dose; read-out: Cell growth inhibition %
In short: as §1

KM12 = conditions: Homo sapiens; KM12, Colon cancer; NCI one dose; read-out: Cell growth inhibition %
In short: as §1

HL-60(TB) = conditions: Homo sapiens; HL-60(TB), Leukemia; NCI one dose; read-out: Cell growth inhibition %
In short: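 Activity reflects a single-point exposure at 10 µM, with cell mass determined by a sulforhodamine B dye assay.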

MDA-MB-231/ATCC = conditions: Homo sapiens; MDA-MB-231/ATCC, Breast cancer; NCI one dose; read-out: Cell growth inhibition %
In short: as §1

OVCAR-3 = conditions: Homo sapiens; OVCAR-3, Ovarian Cancer; NCI one dose; read-out: Cell growth inhibition %
In short: as §1

BT-549 = conditions: Homo sapiens; BT-549, Breast cancer; NCI one dose; read-out: Cell growth inhibition %
In short: as §1

ACHN = conditions: Homo sapiens; ACHN, Renal cancer; NCI one dose; read-out: Cell growth inhibition %
In short: as §1

SF-539 = conditions: Homo sapiens; SF-539, CNS Cancer; NCI one dose; read-out: Cell growth inhibition %
In short: as §1

CAKI-1 = conditions: Homo sapiens; CAKI-1, Renal cancer; NCI one dose; read-out: Cell growth inhibition %
In short: as §1

OVCAR-5 = conditions: Homo sapiens; OVCAR-5, Ovarian Cancer; NCI one dose; read-out: Cell growth inhibition %
In short: as §1

HS 578T = conditions: Homo sapiens; HS 578T, Breast cancer; NCI one dose; read-out: Cell growth inhibition %
In short: as §1

OVCAR-8 = conditions: Homo sapiens; OVCAR-8, Ovarian Cancer; NCI one dose; read-out: Cell growth inhibition %
In short: as §1

LOX IMVI = conditions: Homo sapiens; for inhibition at 10 µM: Melanoma, NCI one dose, read-out: Cell growth inhibition %
In short: as §1

HT29 = conditions: Homo sapiens, HT-29; HT29, Colon cancer; NCI one dose; read-out: Cell growth inhibition %
In short: as §1

Structure (SMILES) | inhibition at 10 µM (SF-268) | inhibition at 10 µM (IGROV1) | inhibition at 10 µM (786-0) | inhibition at 10 µM (NCI-H460) | inhibition at 10 µM (MDA-MB-435) | inhibition at 10 µM (MDA-MB-468) | inhibition at 10 µM (MCF7) | inhibition at 10 µM (A498) | inhibition at 10 µM (HOP-92) | inhibition at 10 µM (TK-10) | inhibition at 10 µM (SK-MEL-2) | inhibition at 10 µM (PC-3) | inhibition at 10 µM (SK-MEL-28) | inhibition at 10 µM (SR) | inhibition at 10 µM (NCI/ADR-RES) | inhibition at 10 µM (UO-31) | inhibition at 10 µM (DU-145) | inhibition at 10 µM (SW-620) | inhibition at 10 µM (RPMI-8226) | inhibition at 10 µM (KM12) | also measured
COc1ccc(-c2nc3cc(-c4nnc(SCC(=O)Nc5ccc(C(=O)/C=C/c6ccc(OC)c(OC)c6)cc5)o4)ccc3[nH]2)cc1 [Compound 7n, 2-{5-[2-(4-Methoxyphenyl)-1 H-benzo[d]imidazol-5-yl]-1,3,4-oxadiazol-2-ylthio}-N-{4-[(E)-3-(3,4-dimethoxyphenyl)acryloyl]phenyl}acetamide] | 0.44% | 12.3% | 8.7% | 8.91% | 6.15% | 10.7% | 55.5% | 0% | 0% | 0% | 6.27% | 2.83% | 3.97% | 73.6% | 6.05% | 26.4% | 13.4% | 13.6% | 32.3% | 23.4% | inhibition at 10 µM (HL-60(TB)): 13.8%; inhibition at 10 µM (MDA-MB-231/ATCC): 0%; inhibition at 10 µM (OVCAR-3): 14.3%; inhibition at 10 µM (BT-549): 1.04%; inhibition at 10 µM (ACHN): 10.7%; inhibition at 10 µM (SF-539): 13.3%; inhibition at 10 µM (CAKI-1): 1.11%; inhibition at 10 µM (OVCAR-5): 0%; inhibition at 10 µM (HS 578T): 7.35%; inhibition at 10 µM (OVCAR-8): 7.51%; activity at 10 µM (LOX IMVI; LOX IMVI (Melanoma), 10 µM one dose, read-out: Growth Percent): 44%; inhibition at 10 µM (LOX IMVI): 56.1%; inhibition at 10 µM (HT29): 0%
COc1ccc(-c2nc3cc(-c4nnc(SCC(=O)Nc5ccc(C(=O)/C=C/c6cc(OC)c(OC)c(OC)c6)cc5)o4)ccc3[nH]2)cc1 [Compound 7o, 2-{5-[2-(4-Methoxyphenyl)-1 H-benzo[d]imidazol-5-yl]-1,3,4-oxadiazol-2-ylthio}-N-{4-[(E)-3-(3,4,5-trimethoxyphenyl)acryloyl]phenyl}acetamide] | 0% | 0% | 0% | 0% | 0% | 0% | 18.4% | 0% | 0% | 0% | 0% | 0% | 0% | 15.2% | 0% | 12.2% | 0% | 0% | 23.2% | 0% | inhibition at 10 µM (HL-60(TB)): 0%; inhibition at 10 µM (MDA-MB-231/ATCC): 2.18%; inhibition at 10 µM (OVCAR-3): 0%; inhibition at 10 µM (BT-549): 0%; inhibition at 10 µM (ACHN): 0%; inhibition at 10 µM (SF-539): 2.1%; inhibition at 10 µM (CAKI-1): 1.83%; inhibition at 10 µM (OVCAR-5): 0%; inhibition at 10 µM (HS 578T): 0%; inhibition at 10 µM (OVCAR-8): 0%; inhibition at 10 µM (LOX IMVI): 22.9%; inhibition at 10 µM (HT29): 0%
